Assay [1] deals with human hGHSR1a-vasopressin receptor 2 tail chimera. Briefly: β-arr2^GFP translocation, compound screening (U2OS). Type of assay: cell-based. To be noted: secondary assay of HTS hits; for EC50: read-out: Beta-arrestin translocation EC50; for Beta-arrestin translocation ECmax (%): normalized to L585.
Assay [2] concerns the target hGHSR1a^WT (Homo sapiens, UniProt Q92847). Briefly: Gαq-dependent intracellular Ca2+ mobilization (iCa2+, miAeq). Type of assay: cell-based. The arrangement: HEK293/T (transient); HEK293S Gαq knockout (transient, NanoBiT Gαq). The conditions noted are these: for Calcium signaling ECmax (%) / EC50: secondary assay of HTS hits; for Calcium signaling ECmax (%): normalized to L585; for EC50: read-out: Calcium signaling EC50; for inhibition of iCa2+ evoked by N8279, ghrelin or L585: 30 minute antagonist pretreatment. The procedure: Gαq-Dependent Intracellular Ca^2+ Mobilization. […] Cells were split into and seeded into 10 cm dishes without antibiotic selection and grown to confluency overnight. The next morning, cells were serum starved in 10 mL of clear opti-MEM (supplemented with L-glutamine and HEPES; Gibco, Waltham, MA) for 3-4 hours in a 37° C. incubator with 5% CO2. Then, 25 μL of coelenterazine H (NanoLight Technology, Pinetop, AZ) was added to each 10 mL dish and incubated for another 1-2 hours. For antagonist assays, test compounds were either added directly to the media in 10 cm dishes, or cells were collected by gentle washing/trituration and plated onto white, clear-bottomed 96-well plates for 30 minutes—1 hour. Once the coelenterazine H (or antagonist) incubation was complete, cells were harvested from the 10 cm dish by gentle washing/trituration and collected in a 15 mL conical tube. Cell suspensions were then immediately subjected to assay by injecting cells onto a white, clear-bottomed 96-well plate containing 2× test compounds. Luminescence was read without delay and for 10 seconds per well. To control for cell number variability, cells were lysed in 2× lysis buffer (100 mM CaCl2+0.2% Triton-X) immediately following the assay. The max ligand-induced response (Ca^2+ mobilization: net-miAeq) over 10 seconds was normalized by dividing the ligand-induced luminescence counts (L-miAeq) by the ligand-induced luminescence counts (L-MiAeq) plus the luminescence measured upon cell lysis (Lysis-miAeq). Relative, lysis-normalized data were then normalized to the appropriate control/reference condition.
For experiments with WT and Gt KO HEK293/S cells, […] of hGHSR1a^WT, 10 μg of miAEQ, and 2.5 μg of pcDNA3.1 was transiently transfected into 10 cm dishes and incubated overnight. […] Twenty-four hours later, experiments proceeded in accordance with the procedures described above. To control for any possible kinetic differences in genetically modified cell lines or GHSR1a variants, the average ligand-induced response over 10 seconds was calculated, then normalized by dividing the L-miAeq by the L-miAeq plus the Lysis-miAeq and normalized to the appropriate control/reference condition.

Broadly, the EC50 is the concentration that produces a half-maximal response.

hGHSR1a^WT, sequence (Q92847 whole entry): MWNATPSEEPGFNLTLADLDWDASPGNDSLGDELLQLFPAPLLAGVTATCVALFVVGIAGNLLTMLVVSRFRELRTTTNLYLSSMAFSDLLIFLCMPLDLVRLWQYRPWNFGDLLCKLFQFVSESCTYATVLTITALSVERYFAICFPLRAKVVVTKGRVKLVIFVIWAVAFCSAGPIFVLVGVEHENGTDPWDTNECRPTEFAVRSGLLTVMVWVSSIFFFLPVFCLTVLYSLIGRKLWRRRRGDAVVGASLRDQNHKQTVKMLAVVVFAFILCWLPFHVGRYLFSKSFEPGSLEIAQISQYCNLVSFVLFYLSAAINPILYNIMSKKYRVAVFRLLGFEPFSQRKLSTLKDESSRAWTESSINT

Consider `CCCCOCCCn1c(N)c(C(=O)OC(C)COC)c2nc3ccccc3nc21` (stereo not drawn) [MLS000036469], for which, in assay [1], the EC50 is 147 µM. In addition, in assay [2], the “Calcium signaling ECmax (%)” value is 50% and the EC50 was determined as 0.00306 µM.
As to `Cc1ccc2oc3c(c(=O)c2c1)C(c1cccc(Cl)c1)N(CCCN1CCOCC1)C3=O` (stereo not drawn) [MLS000103531], in assay [1], the “Beta-arrestin translocation ECmax (%)” value is given as 204% and the concentration for a half-maximal effect (EC50) is 6.3 µM. Further, in assay [2], the “Calcium signaling ECmax (%)” value is given as 8% and the EC50 was determined as 0.00032 µM.
In the case of `COc1cccc(C2c3c(oc4ccccc4c3=O)C(=O)N2CCCN2CCOCC2)c1` (stereo not drawn) [MLS000115599], in assay [2], the “Calcium signaling ECmax (%)” value is recorded as 71% and the EC50 was determined as 20.4 µM.
With `CC(C)CCOc1cccc(C2c3c(oc4ccccc4c3=O)C(=O)N2CCCN2CCOCC2)c1` (stereo not drawn) [MLS000115603], the EC50 in assay [1] is about 4690 µM. For the same molecule, in assay [2], the “Calcium signaling ECmax (%)” value is 48% and the EC50 came out at 0.00681 µM.
Consider `CCOc1ccc(C2c3c(oc4ccccc4c3=O)C(=O)N2CCCN2CCOCC2)cc1OCC` (stereo not drawn) [MLS000115604], for which, in assay [1], the “Beta-arrestin translocation ECmax (%)” value is 38% and the EC50 stood at 0.00298 µM. For the same molecule, in assay [2], the “Calcium signaling ECmax (%)” value came out at 51% and the EC50 is 0.00804 µM.
Turning to `CCCOc1ccc(C2c3c(oc4cc(C)c(C)cc4c3=O)C(=O)N2CCCN2CCOCC2)cc1` (stereo not drawn) [MLS000115606], in assay [1], the “Beta-arrestin translocation ECmax (%)” value is listed as 24% and the EC50 was determined as 0.0312 µM.
Regarding `CCCOc1ccc(C2c3c(oc4cc(C)c(C)cc4c3=O)C(=O)N2CCCN(C)C)cc1OCC` (stereo not drawn) [MLS000115621], in assay [1], the “Beta-arrestin translocation ECmax (%)” value is reported as 0%. In addition, in assay [2], the “Calcium signaling ECmax (%)” value is reported as 126% and the EC50 was determined as 2.38 µM.
Consider `COc1cccc(C2c3c(oc4ccccc4c3=O)C(=O)N2CCCN2CCOCC2)c1` (stereo not drawn) [MLS002585710], for which, in assay [2], the “Calcium signaling ECmax (%)” value was 56% and the EC50 was determined as 0.0176 µM.
Take `COc1ccc(C2c3c(oc4ccc(F)cc4c3=O)C(=O)N2Cc2ccc3c(c2)OCO3)cc1` (stereo not drawn) [NCGC00101634]: in assay [1], the “Beta-arrestin translocation ECmax (%)” value came out at 10% and the 50% effective concentration (EC50) is 0.426 µM. Besides, in assay [2], the “Calcium signaling ECmax (%)” value is 61% and the concentration giving a half-maximal response (EC50) is 7.71 µM.
For the molecule `CCCOc1ccc(C2c3c(oc4ccccc4c3=O)C(=O)N2c2ccc(C)cn2)cc1OCC` (stereo not drawn) [NCGC00101673], in assay [1], the “Beta-arrestin translocation ECmax (%)” value was 49% and the EC50 is 2.4 µM. Also, in assay [2], the “Calcium signaling ECmax (%)” value came to 115% and the EC50 amounted to 32.4 µM.
The matching figures for `CSc1ccc(C2c3c(oc4ccccc4c3=O)C(=O)N2CCCN2CCOCC2)cc1` (stereo not drawn) [NCGC00101907]: 39%, 0.558 µM, 40% and 3.35 µM.
Regarding `C=CCOc1ccc(C2c3c(oc4ccc(C)cc4c3=O)C(=O)N2CCCN2CCOCC2)cc1` (stereo not drawn) [NCGC00101909], the “Beta-arrestin translocation ECmax (%)” value in assay [1] is listed as 64%. The half-maximal effective concentration (EC50) in assay [1] was 0.254 µM; in assay [2], about 3020 µM.
For `Cc1ccc2oc3c(c(=O)c2c1)C(c1ccccc1F)N(CCCN1CCOCC1)C3=O` (stereo not drawn) [NCGC00101911], in assay [2], the “Calcium signaling ECmax (%)” value is 44% and the 50% effective concentration (EC50) came to 0.00226 µM.
As for `Cc1ccc2oc3c(c(=O)c2c1)C(c1cccc(O)c1)N(CCCN1CCOCC1)C3=O` (stereo not drawn) [NCGC00101913], the “Beta-arrestin translocation ECmax (%)” value in assay [1] is listed as 153%. In addition, the concentration for a half-maximal effect (EC50) in assay [1] was 1.55 µM; in assay [2], about 18000 µM.
Taken in the same sequence, the figures for `COc1cc(C2c3c(oc4cc(C)c(C)cc4c3=O)C(=O)N2CCCN2CCOCC2)ccc1O` (stereo not drawn) [NCGC00101915] were 368%, 13.6 µM and about 19200 µM.
On to `CCCOc1cccc(C2c3c(oc4cc(C)c(C)cc4c3=O)C(=O)N2CCCN2CCOCC2)c1` (stereo not drawn) [NCGC00101917], for which, in assay [1], the “Beta-arrestin translocation ECmax (%)” value is listed as 20% and the EC50 came to 0.00424 µM. In assay [2], the “Calcium signaling ECmax (%)” value is reported as 39% and the EC50 was found to be 0.0043 µM.
As for `CCCOc1cccc(C2c3c(oc4ccc(F)cc4c3=O)C(=O)N2CCCN2CCOCC2)c1` (stereo not drawn) [NCGC00101919], in assay [1], the “Beta-arrestin translocation ECmax (%)” value was 99% and the EC50 worked out at 1.74 µM. Moreover, in assay [2], the EC50 was about 1520 µM.
On to `CCOc1cc(C2c3c(oc4ccccc4c3=O)C(=O)N2Cc2ccc(OC)cc2)ccc1O` (stereo not drawn) [NCGC00101920], for which the “Beta-arrestin translocation ECmax (%)” value in assay [1] came out at 9%. The EC50 in assay [1] is 0.0165 µM; in assay [2] it was about 18500 µM.
As to `Cc1ccc2oc3c(c(=O)c2c1)C(c1ccc(O)cc1)N(CCCN(C)C)C3=O` (stereo not drawn) [NCGC00101937], in assay [1], the “Beta-arrestin translocation ECmax (%)” value was 49% and the concentration giving a half-maximal response (EC50) is 0.855 µM. Further, in assay [2], the “Calcium signaling ECmax (%)” value is listed as 112% and the EC50 was 2.78 µM.
Taken in the same sequence, the figures for `Cc1ccc2oc3c(c(=O)c2c1)C(c1ccccc1F)N(CCCN(C)C)C3=O` (stereo not drawn) [NCGC00101939] were 20%, 0.0116 µM, 121% and 4.9 µM.
For `CCCCOc1ccc(C2c3c(oc4ccc(C)cc4c3=O)C(=O)N2CCCN(C)C)cc1OCC` (stereo not drawn) [NCGC00101941], in assay [1], the “Beta-arrestin translocation ECmax (%)” value was 83% and the EC50 was found to be 0.095 µM. Moreover, the EC50 in assay [2] was about 26900 µM.
Turning to `O=C1c2oc3ccccc3c(=O)c2C(c2ccccc2F)N1Cc1ccc2c(c1)OCO2` (stereo not drawn) [NCGC00101942], in assay [1], the “Beta-arrestin translocation ECmax (%)” value is 12% and the EC50 worked out at 0.528 µM. Also, the “Calcium signaling ECmax (%)” value in assay [2] is recorded as 57%.
Turning to `CCOc1cccc(C2c3c(oc4ccc(F)cc4c3=O)C(=O)N2CCOC)c1` (stereo not drawn) [NCGC00101945], in assay [1], the “Beta-arrestin translocation ECmax (%)” value is given as 7% and the EC50 was 2 µM. Moreover, in assay [2], the “Calcium signaling ECmax (%)” value is listed as 63% and the EC50 was found to be 1.2 µM.
On to `Cc1ccc2oc3c(c(=O)c2c1)C(c1ccc(O)cc1)N(Cc1ccc2c(c1)OCO2)C3=O` (stereo not drawn) [NCGC00101948], for which, in assay [2], the EC50 was about 11200 µM.
On to `Cc1cc(C)c2c(=O)c3c(oc2c1)C(=O)N(Cc1ccco1)C3c1ccc(F)cc1` (stereo not drawn) [NCGC00116418], for which the EC50 in assay [2] is about 3010 µM.
For `CC(C)c1ccc(C2c3c(oc4ccc(Cl)cc4c3=O)C(=O)N2CCCN2CCOCC2)cc1` (stereo not drawn) [NCGC00119774], in assay [1], the “Beta-arrestin translocation ECmax (%)” value was determined as 163% and the EC50 turned out to be 3.05 µM. In assay [2], the “Calcium signaling ECmax (%)” value is 75% and the EC50 stood at 5.62 µM.
Taken in the same sequence, the figures for `Cc1ccc2oc3c(c(=O)c2c1)C(c1ccc([N+](=O)[O-])cc1)N(CCCN1CCOCC1)C3=O` (stereo not drawn) [NCGC00119776] were 26%, 0.0499 µM, 125% and 12 µM.
As to `O=C1c2oc3ccc(F)cc3c(=O)c2C(c2cccc([N+](=O)[O-])c2)N1CCCN1CCOCC1` (stereo not drawn) [NCGC00119778], the EC50 in assay [2] is about 62000 µM.
As for `COc1cccc(C2c3c(oc4ccc(C)cc4c3=O)C(=O)N2CCCN2CCOCC2)c1OC` (stereo not drawn) [NCGC00136166], in assay [1], the “Beta-arrestin translocation ECmax (%)” value is reported as 11% and the EC50 stood at 0.0716 µM. In addition, the EC50 in assay [2] is about 296 µM.
Regarding `Cc1nc2ccc(Oc3ccc(F)cc3)cc2c(=O)n1C[C@H]1CCCN(C(C)C)C1` [YIL781, reference compound], the “inhibition of iCa2+ evoked by N8279, ghrelin or L585” value in assay [2] was “competitively inhibited”.
For JMV2959 [reference compound], the “inhibition of iCa2+ evoked by N8279, ghrelin or L585” value in assay [2] is “competitively inhibited”.

Source of the values: patent publication US20240391928A1, “COMPOSITIONS FOR THE TREATMENT OF FOOD AND CHEMICAL ADDICTION AND METHODS OF MAKING AND USING SAME” (Duke University, priority 2021, published 2024).
